Reference: PMC12055641, “The Study of Antistaphylococcal Potential of Omiganan and Retro-Omiganan Under Flow Conditions” (Probiotics and Antimicrobial Proteins, 2024)

Key:
[1] = test system: S. aureus clinical strain 030N; set-up: method as in earlier work; conditions: clinical isolate 030N, nasal swab; cited from earlier work
[2] = test system: S. aureus ATCC 25923; test: microbe, parasite or virus in culture
Source text: (§1) Clinical S. aureus strains were collected from patients with atopic dermatitis during their visits to the Outpatient Clinic and hospitalization in the Department of Dermatology, Venereology and Allergology at Medical University of Gdańsk (following the approval from the ethics committee, Approval Number NKBBN/242–477/2014). Reference strains of S. aureus ATCC 25923, S. aureus ATCC 33591, S. aureus ATCC 9144, and S. aureus ATCC 12598 were obtained from the American Type Culture Collection. All the strains were stored at − 80 °C in Roti®-Store cryo vials (Carl Roth GmbH, Karlsruhe, Germany) and before the tests were transferred into fresh Mueller–Hinton Medium (BioMaxima, Lublin, Poland) and incubated for 24 h at 37 °C. Subsequently, each bacterial inoculum was seeded on Mueller–Hinton agar plates (BioMaxima) and incubated again for 24 h. The cultures prepared in this way were used in further antimicrobial assays. Minimum inhibitory concentrations (MICs) were determined according to the Clinical and Laboratory Standards Institute recommendations. […] The experiments were conducted on 96-well microtiter plates, with a final volume of 100 μL. Additionally, in the case of daptomycin, the medium was supplemented with Ca^2+ (50 mg/L). Cell densities were adjusted spectrophotometrically (Multiskan™ GO Microplate Spectrophotometer, Thermo Scientific) at 600 nm. The MICs were taken as the lowest drug concentration at which a visible growth of the microorganisms was inhibited. Minimum biofilm eliminating concentrations (MBECs) were determined on 96-well flat-bottomed microtiter polystyrene plates with resazurin (7-hydroxy-3H-phenoxazin-3-one 10-oxide sodium salt) as a cell viability reagent. To do this, the plates were filled with 100 μL of the initial inoculums of bacteria (0.5 × 10^7 CFU/mL) in the Mueller–Hinton broth and incubated for 24 h at 37 °C. […] After 24 h of incubation, 20 μL of resazurin (4 mg/mL) was added to each well and the MBEC values were read. Minimum biofilm inhibitory concentrations (MBICs) were also determined on 96-well flat-bottomed microtiter polystyrene plates as described previously. To do this, 50 μL of the compounds in the concentration range, diluted MHB, were prepared. Subsequently, the 50 μL of the staphylococcal inoculums were added to reach the same density of bacteria as that in the MBEC assay. After 24 h of incubation at 37 °C, the wells were rinsed three times with PBS and the fresh medium (100 μL) with resazurin (0.6 mg/mL) was added. Then, after 1 h of incubation, MBICs were read. […] All experiments were conducted in triplicate.
(§2) Formation of the biofilm inside the PDMS flow chambers was performed using three peristaltic pumps working simultaneously (LP-pump, Kamush, Lipopharm, Poland) and sterile Tygon® 3350 silicone hoses (2.4 × 0.8 × 0.8 mm) with a length of 30 and 50 cm for inlet and outlet, respectively. Bacterial suspensions were prepared (0.5 × 10^7 CFU/mL) in sterile 50-mL test tubes, which were placed in a heating block at 37 °C. Before experiments, all channels were assessed for tightness and sterilized using a 70% 2-propanol solution (10 min, flow rate 1 mL/min) and rinsed with sterile PBS solution (10 min, flow 0.1 mL/min). The formation of biofilm inside the channels was divided into three stages: (1) adhesion—at this stage S. aureus suspensions were passed through the channels for 4 h at a flow rate of 0.1 mL/min; (2) rinsing—the previously used hoses were replaced with new sterile ones, and the channels were rinsed with sterile PBS solution for 10 min at a flow rate of 0.1 mL/min; (3) biofilm growth—after flushing the channels, the silicone hoses were placed in tubes with MHB medium, which was passed through the channels for 24 h at a flow rate of 0.1 mL/min. All experiments included growth and sterility controls.
(§3) This assay was conducted also on the S. aureus ATCC 25923 and S. aureus 33,591 (MRSA) strains.

[3] = test system: S. aureus clinical strain 043SC (MRSA); set-up: method as in earlier work; conditions: clinical isolate 043SC (MRSA), skin of patient with furuncle folliculitis; cited from earlier work
[4] = test system: S. aureus clinical strain 015N (MRSA); set-up: method as in earlier work; conditions: clinical isolate 015N (MRSA), nasal swab; cited from earlier work
[5] = test system: S. aureus clinical strain 004N (MRSA); set-up: method as in earlier work; conditions: clinical isolate 004N (MRSA), nasal swab; cited from earlier work
[6] = test system: S. aureus ATCC 33591 (MRSA); test: microbe, parasite or virus in culture
Source text: as §1, §2, §3

[7] = test system: S. aureus clinical strain 031S; set-up: method as in earlier work; conditions: clinical isolate 031S, skin; cited from earlier work
[8] = test system: S. aureus clinical strain 005S; set-up: method as in earlier work; conditions: clinical isolate 005S, skin; cited from earlier work
[9] = test system: S. aureus clinical strain 060S; set-up: method as in earlier work; conditions: clinical isolate 060S, skin; cited from earlier work
[10] = test system: S. aureus clinical strain 051N (MRSA); set-up: method as in earlier work; conditions: clinical isolate 051N (MRSA), nasal swab; cited from earlier work
[11] = test system: S. aureus clinical strain 009S; set-up: method as in earlier work; conditions: clinical isolate 009S, skin; cited from earlier work
[12] = S. aureus 25923 biofilm treated under flow with Retro-Omiganan (half MBEC) for 24 h
[13] = S. aureus 25923 biofilm treated under flow with Retro-Omiganan (half MBEC) for 48 h
[14] = S. aureus 25923 biofilm treated under flow with Retro-Omiganan (half MBEC) for 72 h
[15] = Staphylococcus aureus, ATCC25923, 0 h
[16] = Staphylococcus aureus, ATCC25923, 24 h
[17] = Staphylococcus aureus, ATCC25923, 48 h
[18] = Staphylococcus aureus, ATCC25923, 72 h

Row | Compound | Antimicrobial susceptibility (MIC) [1] [µg/mL] | MIC [2, 12] [µg/mL] | MIC [2, 13] [µg/mL] | MIC [2, 14] [µg/mL] | MIC [2, 15] [µg/mL] | MIC [2, 16] [µg/mL] | MIC [2, 17] [µg/mL] | MIC [2, 18] [µg/mL] | Antimicrobial susceptibility (MIC) [3] [µg/mL] | Antimicrobial susceptibility (MIC) [4] [µg/mL] | other results
1 | CC[C@H]1OC(=O)[C@H](C)[C@@H](O[C@H]2C[C@@](C)(OC)[C@@H](O)[C@H](C)O2)[C@H](C)[C@@H](O[C@@H]2O[C@H](C)C[C@H](N(C)C)[C@H]2O)[C@](C)(O)C[C@@H](C)C(=O)[C@H](C)[C@@H](O)[C@]1(C)O [Erythromycin] | 0.25 | ≤ 0.25 | ≤ 0.25 | ≤ 0.25 | ≤ 0.25 | ≤ 0.25 | ≤ 0.25 | ≤ 0.25 | > 512 | 32 | –
2 | CC(=O)O[C@H]1C[C@@]2(C)[C@@H](C[C@@H](O)[C@H]3[C@@]4(C)CC[C@@H](O)[C@@H](C)[C@@H]4CC[C@@]32C)/C1=C(\CCC=C(C)C)C(=O)O [Fusidic Acid] | 0.25 | ≤ 0.25 | ≤ 0.25 | ≤ 0.25 | ≤ 0.25 | ≤ 0.25 | ≤ 0.25 | ≤ 0.25 | 0.125 | 0.125 | Antimicrobial susceptibility (MIC) [5]: 0.0625 µg/mL; MIC ([6]; S. aureus ATCC 33591 (MRSA) biofilm treated under flow with Retro-Omiganan (half MBEC) for 24 h): ≤ 0.25 µg/mL; MIC ([6]; S. aureus ATCC 33591 (MRSA) biofilm treated under flow with Retro-Omiganan (half MBEC) for 48 h): ≤ 0.25 µg/mL; MIC ([6]; S. aureus ATCC 33591 (MRSA) biofilm treated under flow with Retro-Omiganan (half MBEC) for 72 h): ≤ 0.25 µg/mL; MIC ([6]; Staphylococcus aureus, 0 h): ≤ 0.25 µg/mL; MIC ([6]; Staphylococcus aureus, 24 h): ≤ 0.25 µg/mL; MIC ([6]; Staphylococcus aureus, 48 h): ≤ 0.25 µg/mL; MIC ([6]; Staphylococcus aureus, 72 h): ≤ 0.25 µg/mL; Antimicrobial susceptibility (MIC) [7]: 0.25 µg/mL; Antimicrobial susceptibility (MIC) [8]: 0.0625 µg/mL; Antimicrobial susceptibility (MIC) [9]: 0.125 µg/mL; Antimicrobial susceptibility (MIC) [10]: 0.125 µg/mL; Antimicrobial susceptibility (MIC) [11]: 2 µg/mL
